Where two headings read alike, the source gives them in different places. Blank lines part the entries; values can stand above or below the compound they belong to.
What was measured:
[1] = target: T1, human CYP11B1 (Homo sapiens, UniProt P15538); assay: G-402 cell enzyme experiment, CYP11B1 (cortisol product, HTRF), selectivity versus CYP11B2; assay type: cell-based; conditions: human selective factor: ratio of CYP11B1 EC50 to CYP11B2 EC50; G-402 cells
T1 construct: The main elements of an expression plasmid include ORF of human CYP11B1 or human CYP11B2; expressed in transfected cells
T1 sequence (P15538 25-503): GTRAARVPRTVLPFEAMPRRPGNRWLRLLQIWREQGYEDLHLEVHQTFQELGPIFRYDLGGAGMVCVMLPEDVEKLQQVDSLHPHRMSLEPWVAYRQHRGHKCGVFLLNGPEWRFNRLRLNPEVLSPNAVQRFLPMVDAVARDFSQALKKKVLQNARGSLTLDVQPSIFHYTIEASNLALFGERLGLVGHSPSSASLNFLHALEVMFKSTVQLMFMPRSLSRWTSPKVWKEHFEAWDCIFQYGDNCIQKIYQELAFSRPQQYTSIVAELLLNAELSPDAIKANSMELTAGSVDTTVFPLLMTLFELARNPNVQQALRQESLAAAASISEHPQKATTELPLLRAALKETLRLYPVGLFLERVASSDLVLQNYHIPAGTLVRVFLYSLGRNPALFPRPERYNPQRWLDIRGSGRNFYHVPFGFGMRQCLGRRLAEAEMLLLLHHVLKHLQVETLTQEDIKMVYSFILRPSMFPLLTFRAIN
Text: (§1) G-402 cell line was used as host cells to express (by transient or stable transfection) an enzyme of the human CYP11 family. Specifically, G-402 cell lines stably expressing human CYP11B1 and human CYP11B2 were established respectively. […] Therefore, the G-402 cell line is very suitable as a host cell for the ectopic expression of an enzyme of the CYP11 family.
(§2) The G-402 cell line, originally derived from renal myoblastoma, can be obtained from ATCC (CRL-1440). The main elements of an expression plasmid include ORF of human CYP11B1 or human CYP11B2, a suitable promoter (CMV promoter), and a suitable resistance marker (neomycin). The expression plasmid was transfected into G-402 cells by standard technology, and a specific antibiotic was then given for screening. The activity of the enzyme expressed by the screened monoclonal cells was assessed by 11-deoxycorticosterone (substrate of CYP11B2) and 11-deoxycortisol (substrate of CYP11B1).
(§3) The G-402 cells expressing CYP11 plasmid, as established in the above solution, were cultured in McCoy's 5a Modified Medium (ATCC Catalog No. 30-2007) containing 10% FCS and 400 µg/ml G418 in an incubator at 37°C and 5% CO2. A cell enzyme experiment was carried out using DMEM/F12 medium containing 2.5% charcoal-treated FBS and an appropriate concentration of a substrate (1 µM 11-deoxycorticosterone or 1 µM 11-deoxycortisol). In order to detect the activity of the enzyme in the cells, the cells were plated in a 96-well plate and incubated for 16 h. The supernatant was then transferred and analyzed for the concentration of the expected product (the product of CYP11B2: aldosterone; the product of CYP11B1: cortisol). The concentrations of these products were determined by an HTRF experiment of CisBio.
(§4) In the cell enzyme experiment, the inhibitory effect of the test compound on the generated product can reflect the inhibitory effect thereof on the enzyme. The dose-dependent inhibition of the enzyme activity by the compound was calculated by plotting the concentration of the test compound (x axis) versus the measured product level (y axis). Then, the original data was fitted to a 4-parameter sigmoidal function (Morgan-Mercer-Flodin, MMF model) by least square method: y = (AB + Cx^D) / (B + x^D) in which A is the maximum y value, B is the EC50 determined by XLFit, C is the minimum y value, and D is the slope value. The maximum value A corresponds to the amount of the product detected without an inhibitor, and C corresponds to the amount of the product detected in the G402 cells expressing an empty plasmid.
(§5) The EC50 value of the compound of the present invention was determined by the above G-402 experiment system. The activity of the CYP11B2 enzyme was determined under the conditions of 1 µM 11-deoxycorticosterone and a variable amount of the inhibitor, and the activity of the CYP11B1 enzyme was determined under the conditions of 1 µM 11-deoxycortisol and a variable amount of the inhibitor.

[2] = Pharmacokinetic determination in rats; assay type: in vivo; conditions: rat, male SD rats, plasma, oral administration (PO) 5 mg/kg; for MRT inf: read-out: MRT0-∞
Experimental: SD rats were used as test animals to study the pharmacokinetic behavior of the compounds of the present invention in rats (plasma) after oral administration.
3 SD rats per group, male.
Formulation of drug for oral administration: 0.5% CMC-Na (1% Tween 80)
5 g of sodium carboxymethyl cellulose (CMC-Na, viscosity: 800-1200 Cps) was weighed and dissolved in 1000 mL of purified water, and 10 g of Tween 80 was added. These materials were uniformly mixed to form a clear solution.
The example compounds were weighed and dissolved in the solution and the mixture was shaken well and ultrasonicated for 15 min to obtain a colorless clear solution with a concentration of 0.5 mg/mL. Formulation of drug for intravenous administration: 5% DMSO + 10% Solutol HS15 + 85% PBS
After overnight fasting, 3 male SD rats per group were administered orally (PO) at a dose of 5 mg/kg with an administration volume of 10 mL/kg. […]
0.2 mL of blood was collected from the jugular vein of the experimental animals before administration and at 0.25 h, 0.5 h, 1.0 h, 2.0 h, 4.0 h, 6.0 h, 8.0 h, and 24.0 h after administration and placed in an EDTA-2K test tube, and the test tube was centrifuged at 8000 rpm for 6 min at 4°C to separate the plasma, which was stored at -80°C; and the animals were fed 4 h after administration.
3 Experimental results: The final determination results were obtained by using LCMS/MS method.

[3] = target: T2, human CYP11B2 (Homo sapiens, UniProt P19099); assay: G-402 cell enzyme experiment, CYP11B2 (aldosterone product, HTRF); assay type: cell-based; conditions: G-402 cells stably expressing human CYP11B2, 1 µM 11-deoxycorticosterone, 16 h
T2 construct: The main elements of an expression plasmid include ORF of human CYP11B1 or human CYP11B2; expressed in transfected cells
T2 sequence (P19099 25-503): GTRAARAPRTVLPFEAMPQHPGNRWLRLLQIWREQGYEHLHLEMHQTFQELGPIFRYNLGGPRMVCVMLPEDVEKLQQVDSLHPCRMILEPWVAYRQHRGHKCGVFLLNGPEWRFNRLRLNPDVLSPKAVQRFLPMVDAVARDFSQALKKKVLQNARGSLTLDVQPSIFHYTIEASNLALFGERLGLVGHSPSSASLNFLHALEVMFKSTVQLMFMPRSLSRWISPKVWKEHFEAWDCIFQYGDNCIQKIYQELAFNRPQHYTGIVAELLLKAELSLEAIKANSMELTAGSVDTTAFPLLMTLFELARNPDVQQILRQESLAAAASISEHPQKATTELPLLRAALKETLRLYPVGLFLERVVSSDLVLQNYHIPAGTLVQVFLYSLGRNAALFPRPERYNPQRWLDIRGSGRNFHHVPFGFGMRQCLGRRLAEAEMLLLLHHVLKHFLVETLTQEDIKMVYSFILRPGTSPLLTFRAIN
Text: as §1, §2, §3, §4, §5

- hsF [1]: 393x
Compound: 6-(5-(2-ethoxyquinolin-6-yl)pyridin-3-yl)-2,6-diazaspiro[3.3]heptan-2-yl)(1-(methyl-d3)-1H-pyrazol-4-yl)methanone [Example 42]

- AUC(0-inf) [2]: 27700 ng·h/mL
- AUC(0-t) [2]: 27600 ng·h/mL
- Cmax [2]: 6330 ng/mL
- Tmax [2]: 1 h
- half-life [2]: 156 min
- MRT inf [2]: 3.7 h
- hsF [1]: 144x
Compound: CCC(=O)N[C@@H]1CCCc2c(-c3ccc4c(c3)COC(=O)N4C)cncc21 [Example 1-A]

- hsF [1]: > 1279x
Compound: CN1C(=O)OCc2cc(-c3cncc(N4CC5(CN(C(=O)c6cnn(C)c6)C5)C4)c3)ccc21 [Example 5, 1-Methyl-6-(5-(6-(1-methyl-1H-pyrazole-4-carbonyl)-2,6-diazaspiro[3.3]heptan-2-yl)pyridin-3-yl)-1,4-dihydro-2H-benzo[d][1,3]oxazin-2-one]

- EC50 [3]: 24 nM
Compound: CCC(=O)NC1CCCc2c(-c3ccc4nc(OC)ccc4c3)cncc21 (centres unmarked) [Example 14-A]

- EC50 [3]: 5 nM
Compound: CCS(=O)(=O)N1CC(Oc2cncc(-c3ccc4nc(OC)ccc4c3)c2)C1 [Example 22, 6-(5-((1-(ethylsulfonyl)azetidin-3-yl)oxy)pyridin-3-yl)-2-methoxyquinoline]

- EC50 [3]: 16 nM
Compound: COc1ccc2cc(-c3cncc4c3CCCC4NC(C)=O)ccc2n1 (centres unmarked) [Example 24-A]

- hsF [1]: 394x
Compound: CN1C(=O)OCc2cc(-c3cncc(C4=CCN(S(=O)(=O)C5CC5)CC4)c3)ccc21 [Example 41, 6-(1'-(cyclopropylsulfonyl)-1',2',3',6'-tetrahydro-[3,4'-bipyridine]-5-yl)-1-methyl-1,4-dihydro-2H-benzo[d][1,3]oxazin-2-one]

- hsF [1]: > 388x
Compound: CC(=O)N[C@@H]1CCCc2c(-c3cnc4c(c3)CCC(=O)N4C)cncc21 [Example 59, (R)-N-(4-(8-methyl-7-carbonyl-5,6,7,8-tetrahydro-1,8-diazanaphthalen-3-yl)-5,6,7,8-tetrahydroisoquinolin-8-yl)acetamide]

Compound: CCC(=O)N[C@H]1c2cncc(-c3ccc4c(c3)sc(=O)n4C)c2C2CC21 (stereo partly drawn) [Example 66-P2, N-((6R)-4-(3-methyl-2-oxo-2,3-dihydrobenzo[d]thiazol-6-yl)-4b,5,5a,6-tetrahydrocyclopropyl[3,4]cyclopenta[1,2-c]pyridin-6-yl)propanamide]
- hsF [1]: > 1471x

- AUC(0-inf) [2]: 31400 ng·h/mL
- AUC(0-t) [2]: 31400 ng·h/mL
- Cmax [2]: 4910 ng/mL
- Tmax [2]: 4 h
- half-life [2]: 120 min
- MRT inf [2]: 3.9 h
- hsF [1]: > 485x
Compound: Cn1cc(C(=O)N2CC3(C2)CN(c2cncc(-c4ccc5c(c4)sc(=O)n5C)c2)C3)cn1 [Example 67, 3-methyl-6-(5-(6-(1-methyl-1H-pyrazole-4-carbonyl)-2,6-diazaspiro[3.3]heptan-2-yl)pyridin-3-yl)benzo[d]thiazol-2(3H)-one]

- hsF [1]: 585x
Compound: Cn1cc(C(=O)N2CC3(C2)CN(c2cncc(-c4ccc5c(ccc(=O)n5C)c4)c2)C3)cn1 [Example 69, 1-methyl-6-(5-(6-(1-methyl-1H-pyrazole-4-carbonyl)-2,6-diazaspiro[3.3]heptan-2-yl)pyridin-3-yl)quinolin-2(1H)-one]

- hsF [1]: 371x
Compound: CN(c1cncc(-c2ccc3c(ccc(=O)n3C)c2)c1)C1CN(C(=O)c2cnn(C)c2)C1 [Example 74, 1-methyl-6-(5-(methyl(1-(1-methyl-1H-pyrazole-4-carbonyl)azetidin-3-yl)amino)pyridin-3-yl)quinolin-2(1)-one]

- hsF [1]: > 16666x
Compound: CN1C(=O)C2CC2c2cc(-c3cncc(N4CC5(CN(C(=O)c6cnn(C)c6)C5)C4)c3)ccc21 (centres unmarked) [Example 75, 3-methyl-6-(5-(6-(1-methyl-1H-pyrazole-4-carbonyl)-2,6-diazaspiro[3.3]heptan-2-yl)pyridin-3-yl)-1,1a,3,7b-tetrahydro-2H-cyclopropa[c]quinolin-2-one]

- hsF [1]: 2014x
Compound: Cn1cc(C(=O)N2CC(Oc3cncc(-c4ccc5c(ccc(=O)n5C)c4)c3)C2)cn1 [Example 98, 1-methyl-6-(5-((1-(1-methyl-1H-pyrazole-4-carbonyl)azetidin-3-yl)oxy)pyridin-3-yl)quinolin-2(1H)-one]

- hsF [1]: > 3509x
Compound: Cn1cc(C(=O)N2CC(Oc3cncc(-c4ccc5c(c4)sc(=O)n5C)n3)C2)cn1 [Example 99, 3-methyl-6-(6-((1-(1-methyl-1H-pyrazole-4-carbonyl)azetidin-3-yl)oxy)pyrazin-2-yl)benzo[d]thiazol-2(3H)-one]

- AUC(0-inf) ([2]; in vivo): 66500 ng·h/mL
- AUC(0-t) ([2]; in vivo): 60400 ng·h/mL
- Cmax ([2]; in vivo): 6040 ng/mL
- Tmax ([2]; in vivo): 4 h
- half-life ([2]; in vivo): 420 min
- MRT inf ([2]; in vivo): 9.6 h
- hsF [1]: 1372x
Compound: Cn1c(=O)sc2cc(-c3cncc(N4CC5(CN(C(=O)C6(C#N)CC6)C5)C4)c3)ccc21 [Example 105, 1-(6-(5-(3-methyl-2-carbonyl-2,3-dihydrobenzo[d]thiazol-6-yl)pyridin-3-yl)-2,6-diazaspiro[3.3]heptane-2-carbonyl)cyclopropane-1-carbonitrile]

- hsF [1]: 3103x
Compound: Cn1c(=O)sc2cc(-c3cncc(N4CC5(CN(C(=O)C6(C#N)CC6)C5)C4)n3)ccc21 [Example 106, 1-(6-(6-(3-methyl-2-carbonyl-2,3-dihydrobenzo[d]thiazol-6-yl)pyrazin-2-yl)-2,6-diazaspiro[3.3]heptane-2-carbonyl)cyclopropane-1-carbonitrile]

— EP4696688A1, “BENZO-FUSED RING COMPOUND INHIBITOR, AND PREPARATION METHOD THEREFOR AND USE THEREOF” (Shanghai Hansoh Biomedical Co., Ltd., priority 2023, dated 2024)
